From patent US8110569B2, “Enantiomerically pure S-etifoxine, pharmaceutical compositions thereof and methods of their use” (The Regents of the University of California, priority 2006, dated 2012)

Columns and labels:
[1] = test system: mouse formalin pain model; assay: Mouse formalin test, late phase licking (analgesic effect); format: in vivo; details: 3 mg/kg i.p., 30 minutes prior to formalin; male NSA mice; FIG. 5
Protocol: The analgesic effect of test compounds was assessed in a mouse formalin pain model (Hole et al., 1993, Pain 53:247-254). Male NSA mice weighing between 27 and 30 g were housed with access to food and water ad libitum until the test date. On the day of testing, they were given a period of 1 h to adjust to the test chamber. Test compounds or vehicle control (75% polyethylene glycol in 5% dextrose+water) were administered i.p. at 30 minutes prior to the administration of formalin. A solution of 20 μl of 2.5% formalin was then injected subcutaneously into the dorsal side of the hind paw of the test mouse. Immediately following formalin injection, the mice were observed over the next 50 min and the time spent licking the injected hind paw was recorded. The observation time was broken down into 5 minute “bins”, with 10 bins in total. The first 5-min bin is the early phase, considered to be reflective of acute pain. Bins three to ten make up the late phase, considered a measure of chronic inflammatory pain. The results for the late phase are expressed as the averaged mean time (in seconds) that mice spent licking in a 5-min period.
Dose-response relationship was conducted in the range of 3 to 60 mg/kg. Statistical differences in response were determined by one-way analysis of variance with the Dunnett's post-hoc test by using the Prism3 statistical software (GraphPad, Inc., San Diego, Calif.).

[2] = test system: α1β1-3γ2L GABAA receptors; assay: Modulation of GABA-evoked currents in Xenopus oocytes (2-electrode voltage clamp), GABA subunit selectivity; format: cell-based; details: human GABAA receptor subunits expressed in Xenopus oocytes; for GABA subunit selectivity: GABA EC10 control currents, FIGS. 4A and 4B
Protocol: GABA subunit selectivity of etifoxine enantiomers was measured based on their ability to modulate the GABA-evoked currents in Xenopus oocytes.
Receptor mRNA preparation: cDNA clones encoding human GABAA receptor subunits were obtained from commercial sources. mRNA was prepared using conventional techniques with commercially-available “mMessage machine” kits (Ambion). Individual mRNAs (˜1 μg/μL) were stored in aliquots at −80° C.
mRNA injections into Xenopus oocytes: Preparation and micro-injection of oocytes were performed as reported in detail previously (see, Whittemore et al., 1996, Mol Pharmacol 50: 1364-1375). Individual oocytes were injected with 5-50 ng of mRNA at 5:1:1 (GABA). For example, individual oocytes were injected with a 5:1:1 mixture of α1, β1-3, and γ2L (˜5-50 ng of each subunit per cell) to produce expression of α1β1-3γ2L GABAA receptors. Following injections, oocytes were maintained at 16-17° C. in Barth's medium containing (in mM): NaCl, 88; KCl, 1; CaCl2, 0.41; Ca(NO3)2, 0.33; MgSO4, 0.82; NaHCO3, 2.4; HEPES 5; pH=7.4, with 0.1 mg/ml gentamycin sulfate.
Oocyte Electrophysiological recordings: Individual oocytes were placed on a nylon mesh in a 35 mm dish, perfused with frog Ringer (see, Whittemore et al., supra), and voltage clamped at a holding potential of −70 mV. In some cases, simple voltage steps were made to test voltage-dependence. Oocytes were perfused with fresh Ringer or exposed to GABA ±modulators using a custom-made gravity-driven perfusion system consisting of a linear array of 3 capillary tubes. The concentration of GABA used to evoke control currents was adjusted for each individual oocyte to be ˜10% of the maximal current (EC10) measured in that cell. The concentration of GABA required to evoke EC10 ‘control’ currents varied between ˜2 and 12 μM. […] Data are expressed as % of control currents (% modulation=100*[(modulated current/GABA control current)−1].

[3] = In vivo racemization study, plasma enantiomers by chiral LC-MS/MS; design: species or system mouse; details: 30 mg/kg perorally, NSA mice, plasma 30 minutes post dose; FIG. 6A
Protocol: Pure S-etifoxine was administered at 30 mg/kg, perorally, to NSA mice. The desired enantiomer was dissolved in PEG at a concentration of 15 mg/mL and a dose of 2 mL/kg was administered perorally to overnight fasted mice. Plasma concentration of etifoxine enantiomers was determined by LC-MS/MS analysis.
A mixture of 100 μL plasma and 200 μL water in a 6-mL plastic culture tube was vortexed briefly, for about 10 seconds. To this was added 1.5 mL methyl tert-butyl ether and 1.5 mL hexane and vortexed briefly for about 10 seconds. The mixture was centrifuged for about 10 minutes and frozen at −80° C. for 10 minutes. The organic layer was collected and dried under nitrogen at 37° C. The solid was resuspended in 250 μL methanol, vortexed and transferred to 96-well plate.
The samples were analyzed by LC-MS/MS on a […] CHIRALCEL® OD (lot #OD00CE-FJ033) column at room temperature. A mixture of 75% hexane, 25% isopropyl alcohol and 0.05% […] was used as an isocratic mobile phase. The flow rate was set at 1 mL/min at room temperature. Racemic etifoxine spiked into plasma was used as a reference standard. FIGS. 6A and 6B provide representative chromatograms of extracted plasma sample (pure S-etifoxine, dosed at 30 mg/kg/po at 30 minutes post dose) and racemic standard spiked into plasma (100 ng/mL), respectively. […]

Structure (SMILES) | activity in the formalin test (late phase licking) [1] | selectivity between β2 and β1 subunit ([2]; FIG. 4B) | GABA subunit selectivity [2] | racemization in vivo (R-etifoxine in plasma) [3]
CCNC1=Nc2ccc(Cl)cc2C(C)(c2ccccc2)O1 (centres unmarked) [S-etifoxine] | active | more selective for β2 subunit than β1 subunit | shows selectivity for GABA receptor comprising β subunit | little or no racemization in vivo
CCN=C1Nc2ccc(Cl)cc2[C@@](C)(c2ccccc2)O1 [R-etifoxine] | – | – | little or no GABA subunit selectivity | –
